Measurements published in ChEMBL document CHEMBL4152362, “Discovery of DS-6930, a potent selective PPARγ modulator. Part II: Lead optimization” (Bioorg Med Chem, 2018).
Calls of active or inactive are those of the source. The calls are words filed in the database; no cut-off is given here.

Key:
[1] = Clearance in cynomolgus monkey at 1 mg/kg, iv by LC-MS/MS; assay type: ADME, organism-based, Macaca fascicularis; conditions: in vivo
Hepatocyte [2] = assay: Cytotoxicity against F344/DuCrlCrlj rat primary hepatocytes assessed as reduction in mitochondrial enzyme activity at 10 to 100 uM after 24 hrs by WST8 assay; assay type: cell-based
[3] = Oral bioavailability in cynomolgus monkey at 3 mg/kg by LC-MS/MS; assay type: ADME, organism-based, Macaca fascicularis; conditions: in vivo
[4] = 1-octanol/PBS distribution co-efficient, log D of the compound at […] at pH 7.4 after 30 mins by HPLC-MS/MS method; assay type: physicochemical
[5] = Metabolic stability in cynomolgus monkey liver microsomes after 0.5 hrs; assay type: ADME, Macaca fascicularis, microsome; conditions: read-out: Stability
[6] = target: T1, Peroxisome proliferator-activated receptor alpha (Homo sapiens, UniProt Q07869); assay: Agonist activity at recombinant human GAL4-DBD fused PPARalpha LBD expressed in COS7 cells after 24 hrs by luciferase reporter gene assay; assay type: cell-based
T1 sequence (Q07869 whole entry): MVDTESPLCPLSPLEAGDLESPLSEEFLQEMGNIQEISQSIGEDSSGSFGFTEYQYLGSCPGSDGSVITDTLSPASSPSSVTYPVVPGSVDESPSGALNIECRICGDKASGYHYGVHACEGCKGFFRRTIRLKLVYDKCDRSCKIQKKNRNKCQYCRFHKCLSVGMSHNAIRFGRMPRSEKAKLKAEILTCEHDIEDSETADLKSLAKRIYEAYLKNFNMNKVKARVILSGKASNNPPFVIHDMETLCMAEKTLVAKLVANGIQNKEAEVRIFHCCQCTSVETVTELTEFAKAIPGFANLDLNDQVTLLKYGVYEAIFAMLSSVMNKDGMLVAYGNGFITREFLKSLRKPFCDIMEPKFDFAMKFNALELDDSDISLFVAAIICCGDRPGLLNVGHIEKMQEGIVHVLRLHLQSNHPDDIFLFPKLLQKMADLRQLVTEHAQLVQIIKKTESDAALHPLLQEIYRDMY

[7] = AUClast in cynomolgus monkey at 3 mg/kg, po by LC-MS/MS; assay type: ADME, organism-based, Macaca fascicularis; set-up: dose 3 mg/kg, time 0 - last, route oral; conditions: in vivo
[8] = target: T2, Peroxisome proliferator-activated receptor gamma (Homo sapiens, UniProt P37231); assay: Agonist activity at recombinant human GAL4-DBD fused PPARgamma LBD expressed in COS7 cells after 24 hrs by luciferase reporter gene assay; assay type: cell-based
T2 sequence (P37231 whole entry): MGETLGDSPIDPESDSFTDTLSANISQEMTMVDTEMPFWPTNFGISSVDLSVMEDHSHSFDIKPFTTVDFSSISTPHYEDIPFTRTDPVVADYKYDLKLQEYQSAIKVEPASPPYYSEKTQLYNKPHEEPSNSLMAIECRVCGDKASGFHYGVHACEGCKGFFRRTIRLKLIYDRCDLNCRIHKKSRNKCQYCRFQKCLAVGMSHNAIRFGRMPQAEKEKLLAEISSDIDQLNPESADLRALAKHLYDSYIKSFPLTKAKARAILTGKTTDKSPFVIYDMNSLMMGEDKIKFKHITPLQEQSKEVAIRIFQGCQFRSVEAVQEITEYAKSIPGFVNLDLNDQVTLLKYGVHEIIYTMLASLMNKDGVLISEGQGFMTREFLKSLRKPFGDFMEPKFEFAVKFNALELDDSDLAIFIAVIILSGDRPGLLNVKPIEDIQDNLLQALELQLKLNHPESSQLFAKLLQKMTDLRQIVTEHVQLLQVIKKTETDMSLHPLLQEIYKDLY

[9] = Metabolic stability in human liver microsomes after 0.5 hrs; assay type: ADME, microsome; conditions: read-out: Stability
[10] = Cmax in cynomolgus monkey at 3 mg/kg, po by LC-MS/MS; assay type: ADME, organism-based, Macaca fascicularis; set-up: dose 3 mg/kg, route oral; conditions: in vivo
[11] = Half life in cynomolgus monkey at 3 mg/kg, po by LC-MS/MS; assay type: ADME, organism-based, Macaca fascicularis; conditions: in vivo
[12] = Volume of distribution at steady state in cynomolgus monkey at 1 mg/kg, iv by LC-MS/MS; assay type: ADME, organism-based, Macaca fascicularis; conditions: in vivo, read-out: Vdss
[13] = target: T3, Peroxisome proliferator-activated receptor alpha (Homo sapiens) (UniProt Q07869); assay: Agonist activity at recombinant human GAL4-DBD fused PPARalpha LBD expressed in COS7 cells at 10 uM after 24 hrs by luciferase reporter gene assay relative to 2-(4-tert-Butylphenoxy)-3-[4-[2-[(4-pyridin-2-ylbenzoyl)amino]ethoxy] phenyl]propionic acid; assay type: cell-based
T3 sequence (whole entry): T1 sequence (Q07869 whole entry)

[14] = Apparent permeability of the compound after 4 hrs by PAMPA; assay type: ADME
Hepatocyte [15] = assay: Cytotoxicity against F344/DuCrlCrlj rat primary hepatocytes assessed as reduction in mitochondrial enzyme activity at 100 uM after 24 hrs by WST8 assay relative to control; assay type: cell-based; set-up: scale not given: the % may be the effect or the level left
[16] = Tmax in cynomolgus monkey at 3 mg/kg, po by LC-MS/MS; assay type: ADME, organism-based, Macaca fascicularis; conditions: in vivo
[17] = target: T4, Peroxisome proliferator-activated receptor gamma (Homo sapiens) (UniProt P37231); assay: Agonist activity at recombinant human GAL4-DBD fused PPARgamma LBD expressed in COS7 cells at 10 uM after 24 hrs by luciferase reporter gene assay relative to rosiglitazone; assay type: cell-based
T4 sequence (whole entry): T2 sequence (P37231 whole entry)

[18] = target: T4, Peroxisome proliferator-activated receptor gamma (Homo sapiens); assay: Agonist activity at recombinant human GAL4-TAD fused PPARgamma LBD assessed as induction of GAL4-DBD fused NCoA3 co-factor recruitment after 24 to 48 hrs by fluorescence assay
[19] = Cmax in Zucker diabetic fatty rat at 0.3 mg/kg, po administered once daily for 21 days followed by additional administration on day 22; assay type: ADME, organism-based; set-up: dose 0.3 mg/kg, route oral; conditions: in vivo
[20] = AUC (0 to 24 hrs) in F344/DuCrlCrlj rat at 50 mg/kg, po via gavage measured on day 28 post dose; assay type: ADME, organism-based; set-up: time < 24 hr, dose 50 mg/kg, route oral; conditions: in vivo
Rattus norvegicus [21] = assay: Antidiabetic activity in Zucker diabetic fatty rat assessed as reduction in plasma glucose level at 0.3 mg/kg, po administered once daily for 21 days measured on day 22 relative to control; assay type: functional; set-up: scale not given: the % may be the effect or the level left
[22] = target: T4, Peroxisome proliferator-activated receptor gamma (Homo sapiens); assay: Agonist activity at recombinant human GAL4-TAD fused PPARgamma LBD assessed as induction of GAL4-DBD fused RIP140e184b co-factor recruitment after 24 to 48 hrs by fluorescence assay
Rattus norvegicus [23] = assay: Toxicity in F344/DuCrlCrlj rat assessed as increase in heart weight at 50 mg/kg, po administered via gavage once daily for 28 days; assay type: organism-based; conditions: in vivo, 672 h
[24] = Tmax in Zucker diabetic fatty rat at 0.3 mg/kg, po administered once daily for 21 days followed by additional administration on day 22; assay type: ADME, organism-based; conditions: in vivo
Rattus norvegicus [25] = assay: Toxicity in F344/DuCrlCrlj rat assessed as effect on ovary weight at 50 mg/kg, po administered via gavage once daily for 28 days; assay type: organism-based; conditions: in vivo, 672 h
[26] = Cmax in F344/DuCrlCrlj rat at 50 mg/kg, po via gavage measured on day 28 post dose; assay type: ADME, organism-based; set-up: dose 50 mg/kg, route oral; conditions: in vivo
Rattus norvegicus [27] = assay: Antidiabetic activity in Zucker diabetic fatty rat assessed as reduction in plasma glucose level administered orally once daily for 21 days measured on day 22; assay type: functional, organism-based
in vivo = conditions: F344/DuCrlCrlj, rat, po, 50 mg/kg
Description: Tmax in F344/DuCrlCrlj rat at 50 mg/kg, po via gavage measured on day 28 post dose

[28] = target: T4, Peroxisome proliferator-activated receptor gamma (Homo sapiens); assay: Agonist activity at recombinant human GAL4-TAD fused PPARgamma LBD assessed as induction of GAL4-DBD fused SRC1 co-factor recruitment after 24 to 48 hrs by fluorescence assay
Rattus norvegicus [29] = assay: Toxicity in F344/DuCrlCrlj rat assessed as effect on kidney weight at 50 mg/kg, po administered via gavage once daily for 28 days; assay type: organism-based; conditions: in vivo, 672 h
Rattus norvegicus [30] = assay: Toxicity in F344/DuCrlCrlj rat assessed as clinical abnormality at 50 mg/kg, po administered via gavage once daily for 28 days; assay type: organism-based; conditions: in vivo, 672 h
[31] = target: T4, Peroxisome proliferator-activated receptor gamma (Homo sapiens); assay: Agonist activity at recombinant human GAL4-TAD fused PPARgamma LBD assessed as induction of GAL4-DBD fused TRAP220 co-factor recruitment after 24 to 48 hrs by fluorescence assay
Rattus norvegicus [32] = assay: Toxicity in F344/DuCrlCrlj rat assessed as body weight gain at 50 mg/kg, po administered via gavage once daily for 28 days relative to control; assay type: organism-based; conditions: in vivo, 672 h
[33] = target: T4, Peroxisome proliferator-activated receptor gamma (Homo sapiens); assay: Agonist activity at recombinant human GAL4-TAD fused PPARgamma LBD assessed as induction of GAL4-DBD fused CBP co-factor recruitment after 24 to 48 hrs by fluorescence assay
[34] = AUC (0 to 24 hrs) in Zucker diabetic fatty rat at 0.3 mg/kg, po administered once daily for 21 days followed by additional administration on day 22; assay type: ADME, organism-based; set-up: dose 0.3 mg/kg, time < 24 hr, route oral; conditions: in vivo
Rattus norvegicus [35] = assay: Toxicity in F344/DuCrlCrlj rat assessed as death at 50 mg/kg, po administered via gavage once daily for 28 days; assay type: organism-based; conditions: in vivo, 672 h
Rattus norvegicus [36] = assay: Toxicity in Zucker diabetic fatty rat assessed as body weight gain at 3 mg/kg, po administered once daily for 14 days relative to control; assay type: organism-based; conditions: in vivo, 336 h
Rattus norvegicus [37] = assay: Toxicity in F344/DuCrlCrlj rat assessed as reduction in RBC count at 50 mg/kg, po administered via gavage once daily for 28 days relative to control; assay type: organism-based; set-up: scale not given: the % may be the effect or the level left; conditions: in vivo, 672 h
Rattus norvegicus [38] = assay: Antidiabetic activity in Zucker diabetic fatty rat assessed as reduction in plasma glucose level at 3 mg/kg, po administered once daily for 14 days measured on day 15 relative to control; assay type: functional; set-up: scale not given: the % may be the effect or the level left
Rattus norvegicus [39] = assay: Toxicity in F344/DuCrlCrlj rat assessed as effect on hematocrit at 50 mg/kg, po administered via gavage once daily for 28 days; assay type: organism-based; conditions: in vivo, 672 h
[40] = Drug uptake in F344/DuCrlCrlj rat plasma administered via oral gavage measured on day 28 post dose; assay type: ADME

In the case of `Cn1c(COc2cccc(C(=O)O)c2)nc2ccc(Oc3ccc(Cl)c(F)c3)cc21`, the clearance [1] is reported as 0.32 mL/min/kg, the Activity (Hepatocyte [2]) is reported as “Dose-dependent effect” and the bioavailability [3] is reported as 25%. The logD at 0.5 h [4] was 2.7, the remaining at 0.5 h [5] was 100% and the EC50 [6] was > 10 µM. For the same compound, the AUC(0-t) [7] was 40200 ng·h/mL, the EC50 [8] was 68 nM and the remaining at 0.5 h [9] was 100%. For the same compound, the Cmax [10] was 4440 ng/mL, the half-life [11] was 1100 min and the Vd [12] was 0.2 L/kg. For the same compound, the Emax [13] was 32%, the Papp at 4 h [14] was 38.5 ×10⁻⁶ cm/s and the Activity (Hepatocyte [15]) was 19%. It also gave a Tmax [16] of 1.67 h and an Emax [17] of 82%.

With `CN(CCOc1ccc(CC2SC(=O)NC2=O)cc1)c1ccccn1` (stereo unspecified) [ROSIGLITAZONE] the Activity [18] was “Active”, the Cmax [19] was 1040 ng/mL and the AUC at 24 h [20] was 525 µg·h/mL. The Activity (Rattus norvegicus [21]) was 50%, the Activity [22] was “Active” and the Activity (Rattus norvegicus [23]) was 18%. The Tmax [24] was 1.6 h, the Activity (Rattus norvegicus [25]) was “Toxic” and the Cmax [26] was 67.6 µg/mL. The Activity (Rattus norvegicus [27]) was “Dose-dependent effect”, the Tmax (in vivo) was 1 h and the Activity [28] was “Active”. The Activity (Rattus norvegicus [29]) was “Toxic”, the Activity (Rattus norvegicus [30]) was “Non-Toxic” and the Activity [31] was “Active”. For the same compound, the Activity (Rattus norvegicus [32]) was 10%, the Activity [33] was “Active” and the AUC at 24 h [34] was 6550 ng·h/mL. For the same compound, the Activity (Rattus norvegicus [35]) was “Non-Toxic”, the Activity (Rattus norvegicus [36]) was 12.6% and the Activity (Rattus norvegicus [37]) was 13%. For the same compound, the Activity (Rattus norvegicus [38]) was 40.3%, the Activity (Rattus norvegicus [39]) was “Non-Toxic” and the Drug uptake [40] was “Dose-dependent effect”.
